Test system: GRMD plasma proteins
Assay type: in vivo, dog
Details: Post-Treatment to GRMD baseline; Increased in GRMD

## O=c1ccc(-c2cnc(OCC(F)(F)F)nc2)nn1Cc1cncc(F)c1 [EDG-5506]
  Change from GRMD Baseline (fraction): Fructose-bisphosphate aldolase A (ALDOA): -0.0462 fraction
  Change from GRMD Baseline (fraction): G2/mitotic-specific cyclin-B1 (CCNB1): 0.0445 fraction
  Change from GRMD Baseline (fraction): Galectin-4 (LGALS4): -0.0246 fraction
  Change from GRMD Baseline (fraction): Galectin-7 (LGALS7): 0.0215 fraction
  Change from GRMD Baseline (fraction): Glucose-6-phosphate isomerase (GPI): -0.1195 fraction
  Change from GRMD Baseline (fraction): Glyceraldehyde-3-phosphate dehydrogenase (GAPDH): 0.1936 fraction
  Change from GRMD Baseline (fraction): Glycogen synthase kinase-3 alpha/beta (GSK3A GSK3B): -0.1722 fraction
  Change from GRMD Baseline (fraction): Granulocyte-macrophage colony-stimulating factor (CSF2): -0.1154 fraction
  Change from GRMD Baseline (fraction): Growth factor receptor-bound protein 2 (GRB2): -0.2826 fraction
  Change from GRMD Baseline (fraction): Growth/differentiation factor 5 (GDF5): -0.0828 fraction
  Change from GRMD Baseline (fraction): Heat shock 70 kDa protein 1A (HSPA1A): -0.1812 fraction
  Change from GRMD Baseline (fraction): Heat shock cognate 71 kDa protein (HSPA8): -0.1958 fraction
  Change from GRMD Baseline (fraction): Heat shock protein HSP 90-alpha/beta (HSP90AA1 HSP90AB1): -0.0775 fraction
  Change from GRMD Baseline (fraction): Heat shock protein HSP 90-beta (HSP90AB1): -0.0807 fraction
  Change from GRMD Baseline (fraction): Heat shock protein beta-1 (HSPB1): -0.0394 fraction
  Change from GRMD Baseline (fraction): Hepatoma-derived growth factor-related protein 2 (HDGFRP2): 0.011 fraction
  Change from GRMD Baseline (fraction): Heterogeneous nuclear ribonucleoprotein A/B (HNRNPAB): -0.0915 fraction
  Change from GRMD Baseline (fraction): Heterogeneous nuclear ribonucleoprotein Q (SYNCRIP): -0.0651 fraction
  Change from GRMD Baseline (fraction): Heterogeneous nuclear ribonucleoproteins A2/B1 (HNRNPA2B1): -0.1176 fraction
  Change from GRMD Baseline (fraction): Hexokinase-2 (HK2): 0.0338 fraction
  Change from GRMD Baseline (fraction): Histidine triad nucleotide-binding protein 1 (HINT1): -0.0574 fraction
  Change from GRMD Baseline (fraction): Histone H1.2 (HIST1H1C): -0.0242 fraction
  Change from GRMD Baseline (fraction): Histone deacetylase 8 (HDAC8): 0.0429 fraction
  Change from GRMD Baseline (fraction): Homeodomain-interacting protein kinase 3 (HIPK3): 0.4997 fraction
  Change from GRMD Baseline (fraction): Immunoglobulin superfamily containing leucine-rich repeat protein 2 (ISLR2): -0.0595 fraction
  Change from GRMD Baseline (fraction): Inducible T-cell costimulator (ICOS): -0.0476 fraction
  Change from GRMD Baseline (fraction): Inosine-5'-monophosphate dehydrogenase 2 (IMPDH2): -0.0129 fraction
  Change from GRMD Baseline (fraction): Insulin-degrading enzyme (IDE): -0.2863 fraction
  Change from GRMD Baseline (fraction): Insulin-like growth factor-binding protein 3 (IGFBP3): 0.0105 fraction
  Change from GRMD Baseline (fraction): Intercellular adhesion molecule 5 (ICAM5): -0.1345 fraction
  Change from GRMD Baseline (fraction): Interferon alpha-10 (IFNA10): -0.0472 fraction
  Change from GRMD Baseline (fraction): Interleukin-1 alpha (IL1A): -0.0188 fraction
  Change from GRMD Baseline (fraction): Interleukin-1 receptor-like 2 (IL1RL2): 0.0618 fraction
  Change from GRMD Baseline (fraction): Interleukin-15 receptor subunit alpha (IL15RA): -0.0392 fraction
  Change from GRMD Baseline (fraction): Interleukin-17F (IL17F): -0.0474 fraction
  Change from GRMD Baseline (fraction): Interleukin-37 (IL37): -0.0158 fraction
  Change from GRMD Baseline (fraction): Junctional adhesion molecule B (JAM2): -0.0421 fraction
  Change from GRMD Baseline (fraction): Junctional adhesion molecule C (JAM3): 0.0569 fraction
  Change from GRMD Baseline (fraction): Kallikrein-6 (KLK6): -0.032 fraction
  Change from GRMD Baseline (fraction): Kallikrein-12 (KLK12): 0.0927 fraction
  Change from GRMD Baseline (fraction): Kallikrein-14 (KLK14): 0.0054 fraction
  Change from GRMD Baseline (fraction): Kin of IRRE-like protein 3 (KIRREL3): 0.0811 fraction
  Change from GRMD Baseline (fraction): Kremen protein 2 (KREMEN2): -0.0135 fraction
  Change from GRMD Baseline (fraction): Kynureninase (KYNU): 0.1449 fraction
  Change from GRMD Baseline (fraction): L-Selectin (SELL): -0.0484 fraction
  Change from GRMD Baseline (fraction): L-lactate dehydrogenase B chain (LDHB): -0.1273 fraction
  Change from GRMD Baseline (fraction): Leucine-rich repeat serine/threonine-protein kinase 2 (LRRK2): -0.023 fraction
  Change from GRMD Baseline (fraction): Leucine-rich repeat transmembrane protein FLRT1 (FLRT1): 0.162 fraction
  Change from GRMD Baseline (fraction): Low affinity immunoglobulin epsilon Fc receptor (FCER2): -0.0106 fraction
  Change from GRMD Baseline (fraction): MAP kinase-activated protein kinase 2 (MAPKAPK2): -0.1017 fraction
  Change from GRMD Baseline (fraction): MAP kinase-activated protein kinase 3 (MAPKAPK3): -0.0643 fraction
  Change from GRMD Baseline (fraction): Macrophage scavenger receptor types I and II (MSR1): 0.4558 fraction
  Change from GRMD Baseline (fraction): Malate dehydrogenase, cytoplasmic (MDH1): -0.0153 fraction
  Change from GRMD Baseline (fraction): Methionine aminopeptidase 2 (METAP2): -0.0243 fraction
  Change from GRMD Baseline (fraction): Microtubule-associated protein tau (MAPT): -0.0598 fraction
  Change from GRMD Baseline (fraction): Mitogen-activated protein kinase 3 (MAPK3): -0.1158 fraction
  Change from GRMD Baseline (fraction): Mitogen-activated protein kinase 8 (MAPK8): -0.1634 fraction
  Change from GRMD Baseline (fraction): Mitogen-activated protein kinase 12 (MAPK12): -0.2043 fraction
  Change from GRMD Baseline (fraction): Mitogen-activated protein kinase 14 (MAPK14): -0.1229 fraction
  Change from GRMD Baseline (fraction): Mothers against decapentaplegic homolog 3 (SMAD3): -0.0623 fraction
  Change from GRMD Baseline (fraction): Myeloblastin (PRTN3): -0.0133 fraction
  Change from GRMD Baseline (fraction): Myoglobin (MB): -0.1998 fraction
  Change from GRMD Baseline (fraction): Myosin-binding protein C, slow-type (MYBPC1): -0.0674 fraction
  Change from GRMD Baseline (fraction): NKG2D ligand 2 (ULBP2): 0.031 fraction
  Change from GRMD Baseline (fraction): NSFL1 cofactor p47 (NSFL1C): -0.264 fraction
  Change from GRMD Baseline (fraction): Natural cytotoxicity triggering receptor 3 (NCR3): -0.0108 fraction
  Change from GRMD Baseline (fraction): Neuronal cell adhesion molecule (NRCAM): -0.0939 fraction
  Change from GRMD Baseline (fraction): Neutral ceramidase (ASAH2): -0.0127 fraction
  Change from GRMD Baseline (fraction): Nucleoside diphosphate kinase A (NME1): -0.1372 fraction
  Change from GRMD Baseline (fraction): OCIA domain-containing protein 1 (OCIAD1): -0.0044 fraction
  Change from GRMD Baseline (fraction): Oncostatin-M (OSM): 0.019 fraction
  Change from GRMD Baseline (fraction): Opioid-binding protein/cell adhesion molecule (OPCML): -0.0002 fraction
  Change from GRMD Baseline (fraction): PIK3CA/PIK3R1 (PIK3CA PIK3R1): -0.229 fraction
  Change from GRMD Baseline (fraction): Parathyroid hormone-related protein (PTHLH): -0.097 fraction
  Change from GRMD Baseline (fraction): Peptidyl-prolyl cis-trans isomerase E (PPIE): -0.0771 fraction
  Change from GRMD Baseline (fraction): Peroxiredoxin-1 (PRDX1): -0.0908 fraction
  Change from GRMD Baseline (fraction): Peroxiredoxin-6 (PRDX6): -0.0459 fraction
  Change from GRMD Baseline (fraction): Phosphatidylethanolamine-binding protein 1 (PEBP1): 0.0739 fraction
  Change from GRMD Baseline (fraction): Phosphoglucomutase-1 (PGM1): 0.1179 fraction
  Change from GRMD Baseline (fraction): Phosphoglycerate mutase 1 (PGAM1): -0.9265 fraction
  Change from GRMD Baseline (fraction): Plasma serine protease inhibitor (SERPINA5): -0.0121 fraction
  Change from GRMD Baseline (fraction): Platelet glycoprotein 4 (CD36): 0.0288 fraction
  Change from GRMD Baseline (fraction): Platelet-activating factor acetylhydrolase (PLA2G7): 0.0256 fraction
  Change from GRMD Baseline (fraction): Platelet-derived growth factor receptor alpha (PDGFRA): -0.0004 fraction
  Change from GRMD Baseline (fraction): Proliferating cell nuclear antigen (PCNA): -0.0276 fraction
  Change from GRMD Baseline (fraction): Protein NOV homolog (NOV): -0.0669 fraction
  Change from GRMD Baseline (fraction): Protein S100-A12 (S100A12): -0.009 fraction
  Change from GRMD Baseline (fraction): RAC-alpha/beta/gamma serine/threonine-protein kinase (AKT1 AKT2 AKT3): -0.2013 fraction
  Change from GRMD Baseline (fraction): RAC-beta serine/threonine-protein kinase (AKT2): -0.1736 fraction
  Change from GRMD Baseline (fraction): Rab GDP dissociation inhibitor beta (GDI2): -0.0642 fraction
  Change from GRMD Baseline (fraction): Receptor tyrosine-protein kinase erbB-3 (ERBB3): -0.022 fraction
  Change from GRMD Baseline (fraction): Receptor-type tyrosine-protein kinase FLT3 (FLT3): -0.0737 fraction
  Change from GRMD Baseline (fraction): Renin (REN): -0.032 fraction
  Change from GRMD Baseline (fraction): Retinoblastoma-associated protein (RB1): 0.235 fraction
  Change from GRMD Baseline (fraction): S-formylglutathione hydrolase (ESD): 0.0004 fraction
  Change from GRMD Baseline (fraction): Serine/threonine-protein kinase 17B (STK17B): 0.0071 fraction
  Change from GRMD Baseline (fraction): Serine/threonine-protein kinase Chk2 (CHEK2): 0.4343 fraction
  Change from GRMD Baseline (fraction): Serine/threonine-protein kinase WNK3 (WNK3): -0.2205 fraction
  Change from GRMD Baseline (fraction): Serine/threonine-protein kinase receptor R3 (ACVRL1): -0.0651 fraction
  Change from GRMD Baseline (fraction): Small nuclear ribonucleoprotein F (SNRPF): -0.0033 fraction
  Change from GRMD Baseline (fraction): Somatostatin-28 (SST): -0.0229 fraction
  Change from GRMD Baseline (fraction): T-lymphocyte activation antigen CD80 (CD80): 0.0022 fraction
  Change from GRMD Baseline (fraction): Thymic stromal lymphopoietin (TSLP): -0.034 fraction
  Change from GRMD Baseline (fraction): Thyroid peroxidase (TPO): -0.0311 fraction
  Change from GRMD Baseline (fraction): Tissue factor pathway inhibitor (TFPI): 0.029 fraction
  Change from GRMD Baseline (fraction): Transcription factor AP-1 (JUN): 0.0325 fraction
  Change from GRMD Baseline (fraction): Transketolase (TKT): -0.16 fraction
  Change from GRMD Baseline (fraction): Translationally-controlled tumor protein (TPT1): -0.0704 fraction
  Change from GRMD Baseline (fraction): Triosephosphate isomerase (TPI1): -0.2239 fraction
  Change from GRMD Baseline (fraction): Tropomyosin beta chain (TPM2): 0.0295 fraction
  Change from GRMD Baseline (fraction): Troponin I, cardiac muscle (TNNI3): 0.0415 fraction
  Change from GRMD Baseline (fraction): Troponin I, fast skeletal muscle (TNNI2): -0.0403 fraction
  Change from GRMD Baseline (fraction): Troponin T, cardiac muscle (TNNT2): -0.0244 fraction
  Change from GRMD Baseline (fraction): Tumor necrosis factor ligand superfamily member 11 (TNFSF11): 0.0726 fraction
  Change from GRMD Baseline (fraction): Tumor necrosis factor receptor superfamily member 1B (TNFRSF1B): -0.0355 fraction
  Change from GRMD Baseline (fraction): Tumor necrosis factor receptor superfamily member 3 (LTBR): -0.0213 fraction
  Change from GRMD Baseline (fraction): Tyrosine-protein kinase Yes (YES1): -0.136 fraction
  Change from GRMD Baseline (fraction): Tyrosine-protein kinase ZAP-70 (ZAP70): 0.0305 fraction
  Change from GRMD Baseline (fraction): Tyrosine-protein phosphatase non-receptor type 1 (PTPN1): -0.0601 fraction

Source: article PMC10178848, “Modulating fast skeletal muscle contraction protects skeletal muscle in animal models of Duchenne muscular dystrophy” (The Journal of Clinical Investigation, 2023)
